Results published in PubChem BioAssay (NCI).
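1) Cells in 96-well plates. 2) Compound, 48 h, 5 concentrations. 3) Linear interpolation between surrounding doses. 4) Unreached endpoint = highest concentration. TGI marks complete inhibition of growth.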

Key:
Assay in all cases: DTP human tumour cell line panel, 48 h
786-0 renal = system: 786-0 renal
A498 renal = system: A498 renal
A549 NSCLC = system: A549 NSCLC
ACHN renal = system: ACHN renal
BT-549 breast = system: BT-549 breast
CAKI-1 renal = system: CAKI-1 renal
CCRF-CEM leukemia = system: CCRF-CEM leukemia
COLO 205 colon = system: COLO 205 colon
DU-145 prostate = system: DU-145 prostate
EKVX NSCLC = system: EKVX NSCLC
HCC-2998 colon = system: HCC-2998 colon
HCT-116 colon = system: HCT-116 colon
HCT-15 colon = system: HCT-15 colon
HL-60(TB) leukemia = system: HL-60(TB) leukemia
HOP-62 NSCLC = system: HOP-62 NSCLC
HT29 colon = system: HT29 colon
IGROV1 ovarian = system: IGROV1 ovarian
K-562 leukemia = system: K-562 leukemia
KM12 colon = system: KM12 colon
LOX IMVI melanoma = system: LOX IMVI melanoma
M14 melanoma = system: M14 melanoma
MALME-3M melanoma = system: MALME-3M melanoma
MCF7 breast = system: MCF7 breast
MDA-MB-231 breast = system: MDA-MB-231 breast
MDA-MB-435 = system: MDA-MB-435
MDA-N = system: MDA-N
MOLT-4 leukemia = system: MOLT-4 leukemia
NCI-H226 lung = system: NCI-H226 lung
NCI-H23 lung = system: NCI-H23 lung
NCI-H460 lung = system: NCI-H460 lung
NCI-H522 lung = system: NCI-H522 lung
NCI/ADR-RES ovarian = system: NCI/ADR-RES ovarian
OVCAR-3 ovarian = system: OVCAR-3 ovarian
OVCAR-4 ovarian = system: OVCAR-4 ovarian
OVCAR-5 ovarian = system: OVCAR-5 ovarian
OVCAR-8 ovarian = system: OVCAR-8 ovarian
PC-3 prostate = system: PC-3 prostate
RPMI-8226 leukemia = system: RPMI-8226 leukemia
RXF 393 renal = system: RXF 393 renal
SF-268 CNS = system: SF-268 CNS
SF-295 CNS = system: SF-295 CNS
SF-539 CNS = system: SF-539 CNS
SK-MEL-2 melanoma = system: SK-MEL-2 melanoma
SK-MEL-28 melanoma = system: SK-MEL-28 melanoma
SK-MEL-5 melanoma = system: SK-MEL-5 melanoma
SK-OV-3 ovarian = system: SK-OV-3 ovarian
SN12C renal = system: SN12C renal
SNB-19 CNS = system: SNB-19 CNS
SNB-75 CNS = system: SNB-75 CNS
SR leukemia = system: SR leukemia
SW-620 colon = system: SW-620 colon
T-47D breast = system: T-47D breast
TK-10 renal = system: TK-10 renal
U251 CNS = system: U251 CNS
UACC-257 melanoma = system: UACC-257 melanoma
UACC-62 melanoma = system: UACC-62 melanoma
UO-31 renal = system: UO-31 renal

Cc1cc(S(=O)(=O)NC2=NCC(C)NN2)c(S)cc1Cl (configuration not stated)
TGI (786-0 renal): > 100 µM
TGI (A498 renal): 69.8 µM
TGI (A549 NSCLC): > 100 µM
TGI (ACHN renal): > 100 µM
TGI (BT-549 breast): > 100 µM
TGI (CAKI-1 renal): > 100 µM
TGI (CCRF-CEM leukemia): > 100 µM
TGI (COLO 205 colon): > 100 µM
TGI (DU-145 prostate): > 100 µM
TGI (EKVX NSCLC): > 100 µM
TGI (HCC-2998 colon): > 100 µM
TGI (HCT-116 colon): > 100 µM
TGI (HCT-15 colon): > 100 µM
TGI (HL-60(TB) leukemia): > 100 µM
TGI (HOP-62 NSCLC): > 100 µM
TGI (HT29 colon): > 100 µM
TGI (IGROV1 ovarian): 53.3 µM
TGI (K-562 leukemia): 80.9 µM
TGI (KM12 colon): > 100 µM
TGI (LOX IMVI melanoma): 37.7 µM
TGI (M14 melanoma): > 100 µM
TGI (MALME-3M melanoma): 69.2 µM
TGI (MCF7 breast): > 100 µM
TGI (MDA-MB-231 breast): > 100 µM
TGI (MDA-MB-435): > 100 µM
TGI (MDA-N): > 100 µM
TGI (MOLT-4 leukemia): > 100 µM
TGI (NCI-H226 lung): > 100 µM
TGI (NCI-H23 lung): > 100 µM
TGI (NCI-H460 lung): > 100 µM
TGI (NCI-H522 lung): 47 µM
TGI (NCI/ADR-RES ovarian): > 100 µM
TGI (OVCAR-3 ovarian): > 100 µM
TGI (OVCAR-4 ovarian): > 100 µM
TGI (OVCAR-5 ovarian): > 100 µM
TGI (OVCAR-8 ovarian): > 100 µM
TGI (PC-3 prostate): > 100 µM
TGI (RPMI-8226 leukemia): 61.8 µM
TGI (RXF 393 renal): > 100 µM
TGI (SF-268 CNS): 73 µM
TGI (SF-295 CNS): > 100 µM
TGI (SF-539 CNS): > 100 µM
TGI (SK-MEL-2 melanoma): 84.3 µM
TGI (SK-MEL-28 melanoma): > 100 µM
TGI (SK-MEL-5 melanoma): > 100 µM
TGI (SK-OV-3 ovarian): > 100 µM
TGI (SN12C renal): > 100 µM
TGI (SNB-19 CNS): > 100 µM
TGI (SNB-75 CNS): > 100 µM
TGI (SR leukemia): 90.4 µM
TGI (SW-620 colon): > 100 µM
TGI (T-47D breast): > 100 µM
TGI (TK-10 renal): > 100 µM
TGI (U251 CNS): > 100 µM
TGI (UACC-257 melanoma): > 100 µM
TGI (UACC-62 melanoma): > 100 µM
TGI (UO-31 renal): > 100 µM
